Key:
Capan-2 cells = test: Capan-2 cell anti-proliferative activity test; format: cell-based; conditions: Homo sapiens, Capan-2, 120 h; 5 days, CellTiter-Glo
Protocol: Capan-2 cells were provided by Wuhan Heyan Biomedical Technology Co., Ltd., and CellTiter-Glo was purchased from Promega.
Capan-2 cells were seeded in a white 96-well plate, with 80 μL of cell suspension per well, each containing 5,000 Capan-2 cells. The cell plate was placed in a carbon dioxide incubator for overnight culture.
The test compounds were 3-fold diluted with a multi-channel pipette to the 9th concentration, i.e., diluted from 200 μM to 30 nM, and duplicate experiment was set. 78 μL of culture medium was added to an intermediate plate, and then 2 μL of gradient diluted compound per well was transferred to the intermediate plate according to the corresponding position. After mixing well, the compound was transferred to the cell plate at 20 μL per well. The cell plate was placed in a carbon dioxide incubator and cultured for 5 days. Another cell plate was prepared, and the signal value was read on the day of drug administration to serve as the maximum value (Max value in the equation below) for data analysis. 25 μL of cell viability chemiluminescence detection reagent was added to each well of this cell plate, and it was incubated at room temperature for 10 minutes to stabilize the luminescent signal. A multimode microplate reader was used for reading.
After the cell plate was cultured for 5 days, 25 μL of Promega CellTiter-Glo reagent was added to each well of the cell plate, and it was incubated at room temperature for 10 minutes to stabilize the luminescent signal. A multimode microplate reader was used for reading.
The IC50 value could be obtained through curve fitting, and the results of the inhibitory activity of the compounds of the present disclosure on the proliferation of Capan-2 cells are shown in Table 11.

[1] = tested on: HuPrime® gastric cancer GA3055 subcutaneous xenograft model; test: In vivo drug efficacy in HuPrime gastric cancer GA3055 subcutaneous xenograft model; design: species or system female BALB/C nude mice; conditions: BID
Text: • GA3055 tumor-bearing mice were provided by Crown Bioscience (Taicang) Co., Ltd.
Tumor tissue was collected from tumor-bearing mice of the HuPrime® gastric cancer GA3055 xenograft model, and cut into tumor pieces with a diameter of 2 to 3 mm for subcutaneous inoculation in the right anterior scapular region of BALB/c nude mice. When the average tumor volume in the tumor-bearing mice reached approximately 150 mm^3, the mice were randomly grouped. The coefficient of variation (CV) of the tumor volume within each group was calculated using the formula CV=SD/MTV×100%, and should be less than 30%. Administration started on the day of grouping (the tumor volume was measured on the day of grouping). The day of grouping was defined as day 0.
Before the start of administration, all animals were weighed and the tumor volume was measured using a caliper. Given that the volume of the tumor could affect the effectiveness of the treatment, a random grouping design method was used. The mice were grouped based on the volume of their tumors to ensure similar tumor volumes across different groups. Grouping was done using StudyDirector™ (version 3.1.399.19, supplier: Studylog System, Inc., S. San Francisco, CA, USA).
The “Matched distribution” random grouping method was chosen for grouping, which could reflect the smallest intergroup differences at the tumor volume level. This algorithm matched the individual measurements of all selected animals with the average value of all selected animals. Firstly, those paired animals whose average values were close to the average value of all selected animals were chosen, and then they were allocated to groups so that the average value of the group matched (or was as close as possible to) the average value of all selected animals. The final average value of the measurements of each group was as close as possible to the final average value of the other groups.
After the inoculation of tumor cells, routine monitoring included the growth of the tumor and the impact of the treatment on the normal behavior of the animals. Specific content included the activity of the experimental animals, food and water intake, weight gain or loss, and any abnormalities in their eyes, fur, and other conditions. Any clinical symptoms observed during the experiment were recorded in the original data. After the start of administration, the weight of the mice and the size of the tumor were measured twice a week. […] The original data was directly imported into the software after being measured by a balance and caliper, and any changes in the data were recorded in this software. […]
All experimental results were expressed as the mean tumor volume±SEM (standard error of the mean). […] All data were analyzed using SPSS 18.0. […]

[2] = Pharmacokinetic evaluation in mice; format: in vivo; conditions: male CD-1 mice
Protocol: • CD-1 mice (male, 7 to 9 weeks old, Shanghai SLAC)
The pharmacokinetic characteristics of the compound in rodents were tested using a standard protocol after intravenous injection (IV) and oral (PO) administration. In the experiment, mice were given a single intravenous injection and oral administration. The solvent for the intravenous injection was water. The solvent for oral administration was 0.5% hydroxypropyl methylcellulose. This project involved four male CD-1 mice. Two of the mice were administered a dose of 0.5 mg/kg via intravenous injection. Plasma samples were collected at 0 hours (before administration) and at 0.083, 0.25, 0.5, 1, 2, 4, 8, and 24 hours after administration. The other two mice were administered a dose of 2.5 mg/kg via oral gavage. Plasma samples were collected at 0 h (before administration) and at 0.25, 0.5, 1, 2, 4, 8, and 24 hours after administration. Whole blood samples were collected within 24 hours, centrifuged at 3000 g for 15 minutes, and the supernatant was separated to obtain plasma samples. Four times the volume of acetonitrile solution containing an internal standard was added to precipitate the protein. After centrifugation, the supernatant was collected, an equal volume of water was added, and it was centrifuged again to collect the supernatant for sampling. The plasma concentration was quantitatively analyzed by LC-MS/MS analysis method, and the pharmacokinetic parameters were calculated, such as peak concentration (Cmax), clearance rate (CL), half-life (T1/2), volume of distribution at steady state (Vdss), area under drug-time curve (AUC0-last), bioavailability (F).

Compound: Cn1cc(-c2cnc(CNc3nccn4c(-c5cc(F)cc(F)c5)cnc34)cn2)ccc1=O [Compound 2]
- IC50 (Capan-2 cells): 6.07 nM
- T/C % ([1]; 5 mg/Kg, 37 days): 12.97%
- TGI % ([1]; 5 mg/Kg, 37 days): 94.6%
- T/C % ([1]; 10 mg/Kg): 10.89%
- TGI % ([1]; 10 mg/Kg): 96.8%
- F ([2]; IV 0.5 mg/kg, PO 2.5 mg/kg): 29.4%
- clearance ([2]; mouse, plasma, IV 0.5 mg/kg): 5.37 mL/min/kg
- half-life ([2]; mouse, plasma, IV 0.5 mg/kg, read-out: T1/2 (IV) (converted)): 5.99 h
- Vd ([2]; mouse, plasma, IV 0.5 mg/kg, read-out: Vdss): 0.568 L/kg
- AUC(0-t) ([2]; mouse, plasma, PO 2.5 mg/kg, read-out: AUC0-last (PO)): 20.5 µM·h
- Cmax ([2]; mouse, plasma): 1760 nM
